Reference: patent publication US8080517B2, “Cell-permeable peptide inhibitors of the JNK signal transduction pathway” (Xigen SA, priority 2005, dated 2011)

Assays:
JNK signaling = assay: Heterologous GAL4 system (GAL-Jun / 5xGAL-LUC luciferase reporter) in HeLa cells with MKK4/MKK7 activation of JNK; assay type: cell-based; conditions: peptide 1 μM
Source text: To determine whether the inventive cell-permeable peptides could block JNK signaling in vivo, we used a heterologous GAL4 system. HeLa cells, cultured as described above, were co-transfected with the 5×GAL-LUC reporter vector together with the GAL-Jun expression construct (Stratagene) comprising the activation domain of c-Jun (amino acids 1-89) linked to the GAL4 DNA-binding domain. Activation of JNK was achieved by the co-transfection of vectors expressing the directly upstream kinases MKK4 and MKK7 (see Whitmarsh et al., Science 285: 1578 (1999)). Briefly, 3×10^5 cells were transfected with the plasmids in 3.5-cm dishes using DOTAP (Boehringer Mannheim) following instructions from the manufacturer. For experiments involving GAL-Jun, 20 ng of the plasmid was transfected with 1 μg of the reporter plasmid pFR-Luc (Stratagene) and 0.5 μg of either MKK4 or MKK7 expressing plasmids. Three hours following transfection, cell media were changed and TAT and TAT-IB1(s) peptides (1 μM) were added. The luciferase activities were measured 16 hours later using the “Dual Reporter System” from Promega after normalization to protein content. […] Because HeLa cells express JNK1 and JNK2 isoforms but not JNK3, we transfected cells with JNK3.

βTC-3 cells = assay: IL-1β induced pancreatic β-cell death, peptide treatment, propidium iodide / Hoechst 33342 staining; assay type: cell-based; conditions: for long term inhibition of IL-1β induced cell-death: one single addition 1 μM, IL-1β 10 ng/ml every two days, 15 days
Method: We investigated the effects of the inventive L-TAT-IB(s) peptides on the promotion of β-cell apoptosis elicited by IL-1. βTC-3 cell cultures were incubated for 30 minutes with 1 μM of inventive L-TAT-IB1(s) peptides followed by 10 ng/mL of IL-1. A second addition of peptide (1 μM) was performed 24 hours later. Apoptotic cells were counted after two days of incubation with IL-1 β using propidium iodide (red stained cell are dead cells) and Hoechst 33342 (blue stained cell are cells with intact plasma membrane) nuclear staining.
Long term inhibition of IL-1 induced cells death was examined by treating βTC-3 cells as described above, except that incubation of the cells with the peptides and IL-1 β was sustained for 12 days. Additional peptides (1 μM) were added each day and additional IL-1 β (10 ng/mL) was added every 2 days. […] Taken together, these experiments provide evidence that inventive TAT-IB(s) peptides are biologically active molecules able to prevent the effects of JNK signaling on cell fate.
Inhibition of IL-1 β induced pancreatic β-cell death by the inventive D-TAT-IB1(s) peptide was analyzed. βTC-3 cells were incubated as described above for 30 minutes with one single addition of the indicated peptides (1, μM), then IL-1 (10 ng/ml) was added.
Apoptotic cells were then counted after two days of incubation with IL-1 β by use of Propidium Iodide and Hoechst 33342 nuclear staining. A minimum of 1,000 cells were counted for each experiment. Standard Error of the Means (SEM) are indicated, n=5.
Long term inhibition of IL-1P induced cell-death by the D-TAT-IB1 peptide was also analyzed. βTC-3 cells were incubated as above for 30 minutes with one single addition of the indicated peptides (1 μM), then IL-1 β (10 ng/ml) was added, followed by addition of the cytokine every two days. Apoptotic cells were then counted after 15 days of incubation with IL-1 by use of propidium iodide and Hoechst 33342 nuclear staining. […] A minimum of 1.000 cells were counted for each experiment.

activated JNKs = assay: c-Jun phosphorylation by activated JNKs pulled down with GST-Jun from UV-light irradiated HeLa cells or IL-1β treated βTC-3 cells; assay type: biochemical; conditions: peptide 25 μM for 20 minutes
Method: The effects of the L-TAT or inventive L-TAT-IB1(s) peptides on JNKs activated by stressful stimuli were evaluated using GST-Jun to pull down JNKs from UV-light irradiated HeLa cells or IL-1 β treated PTC cells. PTC cells were cultured as described above. HeLa cells were cultured in DMEM medium supplemented with 10% Fetal Calf Serum, 100 μg/mL Streptomycin, 100 units/ml Penicillin and 2 mM Glutamine. One hour prior to being used for cell extract preparation, PTC cells were activated with IL-1 β as described above, whereas HeLa cells were activated by UV-light (20 J/m^2). Cell extracts were prepared from control, UV-light irradiated HeLa cells and IL-1β treated βTC-3 cells by scraping the cell cultures in lysis buffer (20 mM Tris-acetate, 1 mM EGTA, 1% Triton X-100, 10 mM p-nitrophenyl-phosphate, 5 mM sodium pyrophosphate, 10 mMP-glycerophosphate, 1 mM dithiothreitol). Debris was removed by centrifugation for five minutes at 15,000 rpm in an SS-34 Beckman rotor. One-hundred μg extracts were incubated for one hour at room temperature with one μg GST-jun (amino acids 1-89) and 10 μL of glutathione-agarose beads (Sigma). Following four washes with the scraping buffer, the beads were resuspended in the same buffer supplemented with L-TAT or inventive L-TAT-IB1(s) peptides (25 μM) for 20 minutes. […]

[1] = tested on: recombinant JNK1, JNK2, or JNK3 kinases; assay: Solid phase kinase assay, phosphorylation of c-Jun, ATF2 and Elk1 by recombinant JNKs; assay type: biochemical
Method: (§1) The effects of the peptides on JNKs-mediated phosphorylation of their target transcription factors were investigated in vitro. Recombinant and non activated JNK1, JNK2 and JNK3 were produced using a TRANSCRIPTION AND TRANSLATION rabbit reticulocyte lysate kit (Promega) and used in solid phase kinase assays with c-Jun, ATF2 and Elk1, either alone or fused to glutathione-S-transferase (GST), as substrates. Dose response studies were performed wherein inventive L-TAT or L-TAT-IB1(s) peptides (0-25 μM) were mixed with the recombinant JNK1, JNK2, or JNK3 kinases in reaction buffer (20 mM Tris-acetate, 1 mM EGTA, 10 mM p-nitrophenyl-phosphate (pNPP), 5 mM sodium pyrophosphate, 10 mM p-glycerophosphate, 1 mM dithiothreitol) for 20 minutes. The kinase reactions were then initiated by the addition of 10 mM MgCl2 and 5 pCi […] and 1 μg of either GST-Jun (aa 1-89), GST-AFT2 (aa 1-96) or GST-ELK1 (aa 307-428). GST-fusion proteins were purchased from Stratagene (La Jolla, Calif.).
Ten μL of glutathione-agarose beads were also added to the mixture. Reaction products were then separated by SDS-PAGE on a denaturing 10% polyacrylamide gel. Gels were dried and subsequently exposed to X-ray films (Kodak). […] The ability of D-TAT, inventive D-TAT-IB1(s) and inventive L-TAT-IB1(s) peptides (0-250 μM dosage study) to inhibit GST-Jun (aa 1-73) phosphorylation by recombinant JNK1, JNK2, and JNKS by were analyzed as described above. Overall, D-TAT-IB1(s) peptide decreased JNK-mediated phosphorylation of c-Jun, but at levels approximately 10-20 fold less efficiently than L-TAT-IB1(s).

JNK3 = target: T1, JNK3 (Homo sapiens, UniProt P53779); assay: Solid phase kinase assay, JNK3 phosphorylation of Elk1; assay type: biochemical; conditions: dose response 0-25 μM, GST-ELK1 (aa 307-428)
T1 construct: host or cells: cell-free: rabbit reticulocyte lysate transcription/translation
Method: as §1
Ten μL of glutathione-agarose beads were also added to the mixture. Reaction products were then separated by SDS-PAGE on a denaturing 10% polyacrylamide gel. […] The ability of D-TAT, inventive D-TAT-IB1(s) and inventive L-TAT-IB1(s) peptides (0-250 μM dosage study) to inhibit GST-Jun (aa 1-73) phosphorylation by recombinant JNK1, JNK2, and JNKS by were analyzed as described above. […]

[2] = tested on: chick embryonic dorsal root ganglion, sympathetic, ciliary and motor neurons; conditions: cited from earlier work
[3] = tested on: primary embryonic cultures and differentiated PC12 cells; conditions: after trophic withdrawal; also in mice treated with 1-methyl-4-phenyl tetrahydropyridine; cited from earlier work
[4] = transient global ischemia; cited from earlier work
AP-1 DNA binding complex = assay: Gel retardation assay with AP-1 probe, nuclear extracts of TNF-α treated HeLa cells; assay type: cell-based; conditions: peptide added 30 minutes before TNF-α 5 ng/ml
WiDr cells = assay: Irradiation (30 Gy) induced apoptosis; assay type: cell-based, human; conditions: 1 μM added 30 minutes before 30 Gy, analyzed 48 hours later
Method: JNK is also activated by ionizing radiation. To determine whether inventive TAT-IB(s) peptides would provide protection against radiation-induced JNK damage, “WiDr” cells were irradiated (30 Gy) in presence or absence of D-TAT, inventive L-TAT-IB1(s) or inventive D-TAT-IB1(s) peptides (1 μM added 30 minutes before irradiation). Control cells (CTRL) were not irradiated. Cells were analyzed 48 hours later by means of PI and Hoechst 3342 staining, as described above. N=3, SEM are indicated.

T1 sequence (P53779 whole entry, species assumed, the tested form may be a part): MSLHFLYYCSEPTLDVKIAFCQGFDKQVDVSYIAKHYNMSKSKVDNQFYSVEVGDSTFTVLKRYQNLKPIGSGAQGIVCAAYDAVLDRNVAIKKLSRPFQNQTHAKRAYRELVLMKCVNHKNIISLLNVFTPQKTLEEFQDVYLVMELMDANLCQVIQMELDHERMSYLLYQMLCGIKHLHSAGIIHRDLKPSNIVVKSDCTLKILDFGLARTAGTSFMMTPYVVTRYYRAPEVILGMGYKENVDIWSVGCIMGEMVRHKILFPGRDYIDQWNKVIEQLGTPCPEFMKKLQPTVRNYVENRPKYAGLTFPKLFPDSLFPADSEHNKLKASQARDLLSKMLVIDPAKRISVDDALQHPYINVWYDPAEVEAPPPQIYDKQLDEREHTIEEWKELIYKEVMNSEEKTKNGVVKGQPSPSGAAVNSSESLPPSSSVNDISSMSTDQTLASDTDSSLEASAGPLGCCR

In the case of “NH2-GRKKRRQRRRPPRPKRPTTLNLFPQVPRSQD-COOH (H-GRKKRRQRRRPPRPKRPTTLNLFPQVPRSQD-OH) [TAT-IB(s)]”, the “activation of c-Jun (luciferase) in cells transfected with JNK3” value (JNK signaling; HeLa cells transfected with JNK3) is reported as “inhibited JNK2 mediated activation of c-Jun”, the “activation of c-Jun (luciferase) following MKK4 and MKK7 mediated activation of JNK” value (JNK signaling; luciferase 16 hours later) is reported as “blocked activation of c-Jun following MKK4 and MKK7 mediated activation of JNK” and the “inhibition of IL-1 induced apoptosis” value (βTC-3 cells; 1 μM, second addition at 24 hours, IL-1 10 ng/mL, two days) is reported as “inhibited IL-1-induced apoptosis of βTC-3 cells”. The “long term inhibition of IL-1 induced cell death” value (βTC-3 cells; 12 days, peptide 1 μM added each day, IL-1β 10 ng/mL every 2 days) was “confers strong protection against apoptosis”, the “long term inhibition of IL-1β induced cell-death” value (βTC-3 cells; listed as TAT-IB 1) was “does not confer long-term protection” and the “prevention of c-Jun phosphorylation by activated JNKs” value (activated JNKs) was “efficiently prevented phosphorylation of c-Jun by activated JNKs”. For the same compound, the “inhibition of JNK family phosphorylation of target transcription factors, overall” value [1] was “superior effects in inhibiting JNK family phosphorylation of their target transcription factors”, the “peptide dose giving nearly complete inhibition of c-Jun, ATF2 and Elk1 phosphorylation by JNKs” value ([1]; dose response 0-25 μM, GST-Jun (aa 1-89), GST-AFT2 (aa 1-96), GST-ELK1 (aa 307-428)) was ≥ 2.5 µM and the “inhibition of JNK3 phosphorylation of Elk1” value (JNK3) was “absence of TAT-IB(s) inhibition of JNKS phosphorylation of Elk1”.
In the case of `CCSCc1ccc2c(c1)c1c3c(c4c5cc(CSCC)ccc5n5c4c1n2[C@H]1C[C@](O)(C(=O)OC)[C@]5(C)O1)CNC3=O` [CEP-1347], the “long term-survival of cultured neurons” value [2] is given as “can promote long term-survival” and the neuronal survival [3] is given as “promotes neuronal survival at dosages that inhibit activation of the c-Jun amino-terminal kinases (JNKs)”.
In the case of `N#CC(c1ccnc(NCCc2cccnc2)n1)c1nc2ccccc2s1` (stereo not drawn) [AS601245], the “delayed loss of hippocampal CA1 neurons” value [4] is listed as “significant protection against the delayed loss of hippocampal CA1 neurons”.
In the case of “NH2-GRKKRRQRRRPPRPKRPTTLNLFPQVPRSQD-COOH (H-GRKKRRQRRRPPRPKRPTTLNLFPQVPRSQD-OH) [L-TAT-IB1(s)]”, the “formation of the AP-1 DNA binding complex” value (AP-1 DNA binding complex) is reported as “decrease the formation of the AP-1 DNA binding complex in the presence of TNF-α”, the “long term inhibition of IL-1β induced cell-death” value (βTC-3 cells) is reported as “but not inventive L-TAT-IB1 (s), was able to confer long term (15 day) protection” and the “prevention of irradiation induced apoptosis” value (WiDr cells) is reported as “able to prevent irradiation induced apoptosis”.
